Measurements published in US20070219214A1, “Dual NK2/NK3-antagonists, pharmaceutical compositions comprising them, and processes for their preparation” (Solvay pharmaceuticals GmbH, priority 2006, published 2007).

Experiments:
[1] = target: T1, NK3-receptor (Cavia porcellus, UniProt P30098); experiment: NK-3-receptor-antagonistic effectiveness in vivo, senktide-induced hypertension in guinea pigs; details: guinea pig, iv; read-out: ID50 (iv), inhibition of blood pressure
T1 construct: from tissue; host or cells: whole animal (Dunkin Hartley guinea pigs), in vivo
T1 sequence (P30098 1-440): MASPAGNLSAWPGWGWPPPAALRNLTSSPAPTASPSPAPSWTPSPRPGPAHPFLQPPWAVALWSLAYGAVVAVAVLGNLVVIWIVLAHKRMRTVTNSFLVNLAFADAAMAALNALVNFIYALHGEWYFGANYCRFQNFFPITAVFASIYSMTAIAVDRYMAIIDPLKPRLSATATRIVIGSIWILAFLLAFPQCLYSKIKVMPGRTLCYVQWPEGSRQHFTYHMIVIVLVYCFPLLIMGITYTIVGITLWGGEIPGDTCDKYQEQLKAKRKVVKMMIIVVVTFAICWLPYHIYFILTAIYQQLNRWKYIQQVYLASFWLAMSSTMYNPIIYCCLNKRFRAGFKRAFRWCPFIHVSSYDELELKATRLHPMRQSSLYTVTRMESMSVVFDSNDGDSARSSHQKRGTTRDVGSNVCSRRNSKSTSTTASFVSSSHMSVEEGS
Method: 9. Determination of the NK-3-Receptor-Antagonistic Effectiveness of the Test Substances In Vivo (Reduction of Blood Pressure in Guinea-Pigs with Senktide-Induced Hypertension)
NK3 agonists increase the blood pressure in guinea pigs. The senktide-induced hypertension can be antagonized by administering compounds with NK3-antagonistic properties. Measuring the level of hypertension is indicative of the degree of activity of the test compounds. The effect of the tested compound is assessed in the same experiment to exclude an additional hypertensional effect.
Male Dunkin Hartley guinea pigs with a body weight between 450 and 550 g were anesthetized with Ketamin (200 mg/kg i.m.; Aescoket 10%) and the left carotid artery and left jugular vein were cannulated for blood pressure measurement and drug application, respectively. The animals were allowed to breathe spontaneously. Blood pressure was measured with a strain gauge transducer connected to a computer via an amplifier.
For oral administration, vehicle (1% methylcellulose) or test compound was administered in a dose volume of 5 ml/kg. Forty five minutes thereafter, anesthesia was induced and the carotid artery and jugular vein were cannulated.
For intravenous administration, the test compounds were dissolved in 40% hydroxypropyl-β-cyclodextrine (HPCD) containing 10% DMSO, diluted with saline and administered intravenously in cumulative dose ranges. A vehicle group of animals received the corresponding HPCD/DMSO solutions instead of the test compound. For oral administration, the test compound was suspended in 1% methylcellulose. A vehicle group of animals received the corresponding […] of the test compound.

[2] = target: T2, human NK2-receptor (Homo sapiens, UniProt P21452); experiment: Functional cellular test, Ca2+ measurements using FLIPR for NK2 activity;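 note: CHO cells stably expressing the human receptor, loaded with a calcium dye, antagonist inhibition of ligand-evoked intracellular calcium rise read as peak fluorescence change on FLIPR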
T2 sequence (P21452 1-398): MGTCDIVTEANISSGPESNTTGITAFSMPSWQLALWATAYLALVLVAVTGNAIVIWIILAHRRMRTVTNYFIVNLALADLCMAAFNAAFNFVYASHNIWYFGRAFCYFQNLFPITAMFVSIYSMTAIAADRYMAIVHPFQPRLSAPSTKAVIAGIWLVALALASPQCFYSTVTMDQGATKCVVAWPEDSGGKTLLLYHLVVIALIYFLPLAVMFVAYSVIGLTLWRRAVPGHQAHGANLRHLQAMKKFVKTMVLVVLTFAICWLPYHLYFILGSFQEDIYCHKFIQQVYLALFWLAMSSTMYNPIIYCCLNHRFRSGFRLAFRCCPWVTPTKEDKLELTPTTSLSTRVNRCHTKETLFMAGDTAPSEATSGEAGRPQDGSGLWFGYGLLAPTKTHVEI
Method: Functional Cellular Tests of the NK1-, NK2- and NK3-Antagonism
Functional cellular tests of the antagonistic effect of the compounds of the present invention on the human tachykinin receptors were performed in CHO cells expressing the recombinant human NK1, NK2 or NK3-receptor. In these tests the inhibition of ligand-induced increase in mobilization of intracellular calcium and inhibition of ligand-induced phosphorylation of mitogen activated protein kinase (MAPK) were determined, which can be used as a measure of functional activity of tachykinin-antagonists. Additionally, the antagonistic properties of reference compounds on the different tachykinin receptors were characterized for comparison.
The effects of test compounds were assessed using Chinese hamster ovary (CHO) fibroblast cells, stably expressing cloned human NK1, NK2 or NK3-receptors. The NK receptor is coupled to Gq. The activation of the Gq protein by ligand binding to the receptor leads to a mobilization of intracellular calcium and phosphorylation of MAPK. Both systems were used to determine functional effects of the test compounds.
Ca^2+ Measurements Using FLIPR for NK1 and NK2 Activity
For tests, cells were seeded 24 hours prior to the experiment into black 96-well microplates. The cell density was 2.2×10^4 cells/well. All steps were done under sterile conditions. In order to observe changes in intracellular calcium levels, cells were loaded with a calcium-sensitive dye. This dye (FLUO-4, from Molecular Probes) excites at 488 nm, and emits in the 500 nm to 560 nm range, only if a complex with calcium is formed. For the dye loading the growth-medium was aspirated out of the well without disturbing the confluent cell layer and 100 μl loading medium (HBSS, 4 μM FLUO-4, 0.005% (w/v) pluronic acid, 2.5 mM probenecid, 20 mM HEPES, pH 7.4) was dispensed into each well using an automatic pipettor system (Multidrop, Labsystems). Pluronic acid was added to increase dye solubility and dye uptake into the cells, whereas probenecid, an anion exchange inhibitor, was added to the loading medium to increase dye retention in the cells. The cells were incubated in a 5% CO2 incubator at 37° C. for 40 minutes. After dye loading, the cells were washed three times with wash-buffer (HBSS, 2.5 mM probenecid, 20 mM HEPES, pH 7.4) to reduce basal fluorescence. In the last washing step the buffer was aspirated and replaced with 100 μl washing buffer. […] The FLIPR setup parameters were set to 0.4 sec exposure length, filter 1, 50 μl fluid addition, pipettor height at 125 μl, dispense speed 40 μl/sec without mixing. Maximal fluorescence changes were obtained using the statistic function of the FLIPR software, and data plotted using GraphPad Prism 4. All points were expressed as a percentage inhibition of the control agonist. IC50 values were determined using sigmoidal dose-response curve fitting. Antagonist potencies (pA2) values were calculated using equation: pA2=−log(IC50/(1+[L]/EC50)),

[3] = target: T2, human NK2-receptor; experiment: Binding potency of the test substances to NK2-receptors in vitro ([3H]-SR 48968 displacement); design: expressed in transfected cells; host or cells: CHO cells (membrane preparation); details: human NK2-receptor in CHO cell membranes, [3H]-SR 48968 (saredutant); average of at least three measurements; read-out: pKi, binding potency to NK2-receptors (converted)
Method in brief: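 Membranes from CHO cells stably expressing the receptor were incubated with [3H]-saredutant plus test compound, then filtered and counted by liquid scintillation. Nonspecific binding defined with 0.1 μmol/l unlabeled saredutant. IC50 from displacement converted to Ki via Cheng-Prusoff and reported as pKi, averaged over measurements.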

[4] = target: T3, human NK3 receptor (Homo sapiens, UniProt P29371); experiment: Functional cellular test, Ca2+ measurements using aequorin for NK3 activity; type: cell-based; design: expressed in transfected cells; host or cells: cell line co-expressing mitochondrially targeted apoaequorin (CHO according to b76/b77); details: read-out: pA2 data for NK3 (converted)
T3 sequence (P29371 1-465): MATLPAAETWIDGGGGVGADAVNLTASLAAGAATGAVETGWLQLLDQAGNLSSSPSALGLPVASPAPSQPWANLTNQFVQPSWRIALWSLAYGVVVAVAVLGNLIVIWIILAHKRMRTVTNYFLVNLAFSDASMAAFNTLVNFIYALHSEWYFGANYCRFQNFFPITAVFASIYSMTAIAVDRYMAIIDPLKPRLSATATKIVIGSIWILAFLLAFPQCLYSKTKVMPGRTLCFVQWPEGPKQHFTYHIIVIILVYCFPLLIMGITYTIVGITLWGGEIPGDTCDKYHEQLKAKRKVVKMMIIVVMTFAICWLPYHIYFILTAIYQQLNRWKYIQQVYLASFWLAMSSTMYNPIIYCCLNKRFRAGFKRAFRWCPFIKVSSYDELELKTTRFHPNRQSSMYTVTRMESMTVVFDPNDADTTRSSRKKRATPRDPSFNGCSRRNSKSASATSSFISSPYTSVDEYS

`CNC(=O)C1(N2CCCCC2)CCN(CC[C@H](CN(C)C(=O)c2ccccc2)c2ccc(Cl)c(Cl)c2)CC1` [compound 2] gave an ED50 [1] of 1.98 mg/kg, a Kb [2] of 0.501 nM and a Ki [3] of 0.398 nM. For the same molecule, the Kb [4] was 31.6 nM.
